Laboratory results as given in US7323303B2, “Modified β-lactamases and uses thereof” (priority 2003, dated 2008).

Key:
[1] = target: T1, E166C mutant of β-lactamase I (Bacillus cereus, UniProt P00809, E185C); assay: Spectrophotometric substrate hydrolysis, steady-state kinetics; type: biochemical; conditions: 50 mM potassium phosphate buffer pH 7.0, 20° C.
T1 construct: made in house; host or cells: B. subtilis 1A304 (φ105MU331)
T1 sequence (P00809 28-306 E185C): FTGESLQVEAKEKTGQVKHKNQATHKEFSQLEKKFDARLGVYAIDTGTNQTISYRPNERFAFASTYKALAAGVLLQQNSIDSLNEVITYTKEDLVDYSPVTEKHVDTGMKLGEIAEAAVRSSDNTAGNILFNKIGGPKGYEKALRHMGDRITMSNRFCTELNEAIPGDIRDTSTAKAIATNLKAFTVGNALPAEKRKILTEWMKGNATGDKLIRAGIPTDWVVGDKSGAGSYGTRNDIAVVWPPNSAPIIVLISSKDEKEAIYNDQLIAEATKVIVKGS
Method: (§1) The hydrolytic activities of the wild-type β-lactamase I, E166C and E166Cf mutants towards penicillin G, penicillin V and ampicillin (Sigma) were monitored by the spectrophotometric method. The spectrophotometric measurements were performed on a Perkin Elmer Lambda Bio20 UV/Vis spectrometer. Substrate hydrolysis was monitored at a fixed wavelength: 235 nm for ampicillin, 232 nm for penicillin G and penicillin V. The initial rate of substrate hydrolysis occurring within 5 min was determined in duplicate at each of 6 different substrate concentrations in 50 mM potassium phosphate buffer (pH 7.0) at 20° C. The initial rates determined were then treated as described in Reference 5 to calculate the Michaelis constants (Km) and turnover numbers (kcat) using non-linear regression analysis (equation 1):
(§2) [formula] where v is the initial rate of substrate hydrolysis, Vmax the maximum rate of reaction, [S] the initial substrate concentration, Km the Michaelis constant and kcat=Vmax/[Enzyme].
(§3) The measured steady-state kinetic parameters for hydrolysis of penicillin G, penicillin V and ampicillin by the wild-type β-lactamase I, E166C and E166Cf mutants are summarized in Table 1.

wild-type β-lactamase I = target: T2, wild-type β-lactamase I (Bacillus cereus, UniProt P00809); assay: as above; type: biochemical; conditions: 50 mM potassium phosphate buffer pH 7.0, 20° C.
T2 construct: made in house; host or cells: B. subtilis 1A304 (φ105MU331)
Method: as §1, §2, §3

E166Cf enzyme [2] = target: T3, E166Cf enzyme (Bacillus cereus, UniProt P00809, E185C); assay: Time-resolved fluorescence of E166Cf enzyme with penicillins and cephalosporins; type: biochemical; conditions: E166Cf 1.2×10^−7 M
T3 construct: made in house; host or cells: B. subtilis 1A304 (φ105MU331); then labelled chemically
T3 sequence (P00809 28-306 E185C): T1 sequence (P00809 28-306 E185C)
Method: Fluorescence measurements of the E166Cf enzyme in the presence of penicillin G, penicillin V, ampicillin, cefuroxime, cefoxitin and moxalactam were performed on a Perkin Elmer LS50B spectrofluorometer. For time-resolved fluorescence measurement, excitation and emission wavelengths were set at 494 and 515 nm respectively. Both excitation and emission slit widths were set at 5 nm. All fluorescence measurements were performed at room temperature.
With penicillin G as substrate, the fluorescence signal of the E166Cf enzyme (1.2×10^−7 M) at 515 nm in 50 mM phosphate buffer (pH 7.0) increases as a function of the antibiotic concentration (FIG. 4). The time-resolved fluorescence signals of the E166Cf enzyme at 515 nm were also measured with various concentrations of penicillin G (FIG. 5). At low antibiotic concentration (1.0×10^−7 and 1.0×10^−6 M), the fluorescence intensity of the E166Cf enzyme increases gradually and then declines. At high antibiotic concentration (1.0×10^−5 and 1.0×10^−4 M), the fluorescence signal increases instantaneously and levels off to a plateau. The fluorescence signal stays at the plateau for a certain length of time and then declines afterwards. Similar results were obtained with penicillin V and ampicillin (FIGS. 6 and 7).
With cefuroxime, cefoxitin and moxalactam as substrates, the fluorescence intensities of the E166Cf enzyme (1.2×10^−7 M) at 515 nm in 50 mM phosphate buffer (pH 7.0) also increase as a function of antibiotic concentration (FIGS. 8 to 10).
(§4) At high substrate concentration (1.0×10^−5 and 1.0×10^−4 M), the penicillin substrates rapidly occupy the active sites to form the ES complexes, thus switching on the fluorescence of the fluorescein labels instantaneously. […] This can be verified by the fact that the ‘plateau time’ (8 and 22 min for 1.0×10^−5 and 1.0×10^−4 M penicillin G respectively) is consistent with the ‘substrate hydrolysis time’ determined by spectrophotometric assays (7 and 20 min for 1.0×10^−5 and 1.0×10^−4 M penicillin G respectively). When most of the penicillin substrates have been hydrolyzed to carboxylic acids, the fluorescence signal of the labeled enzyme will decline subsequently.

[3] = target: T4, E166Cf (fluorescein-labeled E166C mutant of β-lactamase I) (Bacillus cereus, UniProt P00809, E185C); assay: Spectrophotometric substrate hydrolysis, steady-state kinetics; type: biochemical
T4 construct: made in house; host or cells: B. subtilis 1A304 (φ105MU331); then labelled chemically
T4 sequence (P00809 28-306 E185C): T1 sequence (P00809 28-306 E185C)
Method: as §1, §2, §3, §4

E166Cf enzyme [4] = target: T3, E166Cf enzyme; assay: Detection of β-lactam antibiotics in milk by E166Cf fluorescence; conditions: untreated milk; E166Cf 1.2×10^−7 M
Method: Fluorescence measurements of the E166Cf enzyme in milk in the presence of penicillin G and ampicillin were performed on a FLUOstar microplate reader (BMG Labtechnologies) equipped with two sample injectors. Excitation and emission filters of 485 and 520 nm respectively were used. Milk (pasteurized and homogenized, Nestle Dairy Farm) was purchased at a local supermarket. The labeled enzyme was mixed with the milk sample in a 96-well microtiter plate (Corning Costar). The antibiotics were then added to the mixtures by the injectors.
FIGS. 21 and 22 show the results from the time-resolved fluorescence measurements of the labeled enzyme (1.2×10^−7 M) in untreated milk in the presence of various concentrations of penicillin G and ampicillin respectively.

[5] = E166Cf, 50 mM potassium phosphate buffer pH 7.0, 20° C.

T2 sequence (P00809 28-306): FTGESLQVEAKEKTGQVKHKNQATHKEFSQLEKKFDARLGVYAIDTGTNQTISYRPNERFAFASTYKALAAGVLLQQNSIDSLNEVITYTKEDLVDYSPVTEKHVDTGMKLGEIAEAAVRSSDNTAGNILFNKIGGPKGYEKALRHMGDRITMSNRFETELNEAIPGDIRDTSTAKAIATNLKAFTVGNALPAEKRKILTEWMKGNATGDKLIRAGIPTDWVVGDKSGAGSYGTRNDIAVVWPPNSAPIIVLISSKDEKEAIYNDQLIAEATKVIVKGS

SMILES: CC1(C)S[C@@H]2[C@H](NC(=O)Cc3ccccc3)C(=O)N2[C@H]1C(=O)O [Penicillin G, penicillin G]
- Km [1]: 72 ± 3 µM
- kcat [1]: 2.07 ± 0.02 s⁻¹
- Km (wild-type β-lactamase I): 48 ± 3 µM
- kcat (wild-type β-lactamase I): 2612 ± 320 s⁻¹
- plateau time of fluorescence signal (E166Cf enzyme [2]; 1.0×10^−4 M antibiotic): 22 min
- plateau time of fluorescence signal (E166Cf enzyme [2]; 1.0×10^−5 M antibiotic): 8 min
- substrate hydrolysis time determined by spectrophotometric assays ([3]; 1.0×10^−4 M antibiotic): 20 min
- substrate hydrolysis time determined by spectrophotometric assays ([3]; 1.0×10^−5 M antibiotic): 7 min
- Km [3, 5]: 213 ± 11 µM
- kcat [3, 5]: 5.28 ± 0.09 s⁻¹
- lowest concentration detected by the labeled enzyme (E166Cf enzyme [4]): 10^−6 M
